Consider 17 compounds from ChEMBL document CHEMBL1125891, “Synthesis, molecular modeling studies, and muscarinic receptor activity of azaprophen analogues” (J Med Chem, 1991).

“And” between values parts separate entries of the source, which are not always exact repeats. Equal entries are not always repeated.

The target of assay [1] is Muscarinic acetylcholine receptor.
Description: Inhibition of [3H]QNB binding against muscarinic acetylcholine receptor in rat brain.
The species named for assay [2] is Cavia porcellus. The experiment in a line: The compound was tested for inhibition against methacholine induced tonic contraction in guinea pig ileum. As to conditions: read-out: pA2 (converted). It counts as functional.
Assay [3] deals with Muscarinic acetylcholine receptor. The assay is described as follows: Inhibition of [3H]pirenzepine binding against muscarinic acetylcholine receptor in rat brain. It counts as tissue-based.
The target is the same in assay [4]. The assay is described as follows: Inhibition of methacholine induced phasic contraction of guinea pig ileum. It counts as functional, tissue-based, Cavia porcellus.
The target is the same in assay [5]. The experiment in a line: Inhibition of [3H]QNB binding against muscarinic acetylcholine receptor in guinea pig ileum. It counts as tissue-based, Cavia porcellus.
The species entered for assay [6] is Cavia porcellus. The assay is described as follows: Inhibition of methacholine induced tonic contraction of guinea pig ileum. It counts as functional.
The species entered for assay [7] is Cavia porcellus. The experiment in a line: Inhibition against methacholine induced phasic contraction in guinea pig ileum. The assay is classed as functional. The following applies: read-out: pA2 (converted).
Assay [8] deals with Muscarinic acetylcholine receptor. The assay is described as follows: Inhibition of [3H]QNB binding against muscarinic acetylcholine receptor in rat heart.
Assay [9] deals with T1, Muscarinic acetylcholine receptor M3 (Rattus norvegicus, UniProt P08483). The experiment in a line: Binding activity against rat muscarinic acetylcholine receptor M3 using [3H]QNB as the radioligand.
T1 sequence (P08483 whole entry): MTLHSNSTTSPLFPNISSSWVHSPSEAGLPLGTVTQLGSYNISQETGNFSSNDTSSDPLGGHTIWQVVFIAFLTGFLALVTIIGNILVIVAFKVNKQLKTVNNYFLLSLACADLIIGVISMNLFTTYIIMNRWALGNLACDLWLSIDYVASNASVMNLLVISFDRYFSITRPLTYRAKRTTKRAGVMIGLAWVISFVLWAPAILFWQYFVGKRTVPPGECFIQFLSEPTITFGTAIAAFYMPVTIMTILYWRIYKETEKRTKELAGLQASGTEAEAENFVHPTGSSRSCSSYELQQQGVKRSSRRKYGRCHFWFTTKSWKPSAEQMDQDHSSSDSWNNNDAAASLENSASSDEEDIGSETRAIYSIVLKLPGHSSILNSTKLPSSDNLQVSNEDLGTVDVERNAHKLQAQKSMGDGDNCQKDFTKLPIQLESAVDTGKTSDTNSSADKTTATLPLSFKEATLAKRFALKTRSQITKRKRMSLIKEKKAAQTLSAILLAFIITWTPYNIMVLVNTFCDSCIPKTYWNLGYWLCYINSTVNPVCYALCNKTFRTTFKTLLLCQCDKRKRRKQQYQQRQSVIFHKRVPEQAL
Assay [10] concerns the target T2, Muscarinic acetylcholine receptor M1 (Rattus norvegicus, UniProt P08482).
T2 sequence (P08482 whole entry): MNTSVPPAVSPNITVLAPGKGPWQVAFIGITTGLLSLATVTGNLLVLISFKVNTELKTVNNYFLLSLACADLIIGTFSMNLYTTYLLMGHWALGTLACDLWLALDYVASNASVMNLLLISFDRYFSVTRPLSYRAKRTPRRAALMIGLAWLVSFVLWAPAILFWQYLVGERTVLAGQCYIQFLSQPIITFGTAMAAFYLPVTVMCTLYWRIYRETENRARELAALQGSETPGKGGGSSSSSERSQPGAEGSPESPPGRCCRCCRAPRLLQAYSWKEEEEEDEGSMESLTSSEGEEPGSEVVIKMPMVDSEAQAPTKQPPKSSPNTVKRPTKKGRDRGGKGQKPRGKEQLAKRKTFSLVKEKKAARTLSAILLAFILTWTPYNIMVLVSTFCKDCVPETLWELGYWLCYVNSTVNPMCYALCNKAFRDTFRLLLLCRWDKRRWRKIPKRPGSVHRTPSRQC
The assay is described as follows: Binding activity against rat muscarinic acetylcholine receptor M1 using [3H]QNB as the radioligand.

Assay [11] is filed under the species Cavia porcellus. The experiment in a line: The compound was tested for inhibition against methacholine induced tonic contraction in guinea pig ileum. It counts as functional. The following applies: read-out: pA2 (converted).
For assay [12], the species on record is Cavia porcellus. The experiment in a line: The compound was tested for inhibition against tonic contraction in guinea pig ileum. It counts as functional. The following applies: read-out: pA2 (converted).
Assay [13] deals with Muscarinic acetylcholine receptor. The source holds these as a separate data set.
Description: Inhibition of [3H]OXO-M binding against muscarinic acetylcholine receptor in rat brain membranes
Assay [14] shares this target. The assay is described as follows: The compound was tested for inhibition of [3H]OXO-M binding against muscarinic acetylcholine receptor in rat brain membranes. The assay is classed as cell membranes.
The target of assay [15] is T1, Muscarinic acetylcholine receptor M3. The experiment in a line: The compound was tested for binding activity against muscarinic acetylcholine receptor M3, using [3H]-QNB as the radioligand.
The target of assay [16] is T2, Muscarinic acetylcholine receptor M1. The experiment in a line: The compound was tested for binding activity against muscarinic acetylcholine receptor M1, using [3H]QNB as the radioligand.

Turning to `CN1CC2CC1C[C@H](OC(=O)C(C)(c1ccccc1)c1ccccc1)C2` (some centres not stated), the Ki (commonly the equilibrium dissociation constant of an inhibitor or competing ligand from its target) in [1] worked out at 4.2 nM; in [3] it was 12.7 nM; in assay [5] it was 9.64 nM; in [8], 12.9 nM; in assay [9], 9.28 nM; in [10] it was 2.94 nM. Moreover, the figures for the Kb in assay [2] and in [7] were 1.91 nM and 1.86 nM, respectively. Further, the “-Log Kd” value in assay [4] is on record as 8.44; in [6], 8.75.
With `CN1CC2CC1C[C@H](OC(=O)C(c1ccccc1)c1ccccc1)C2` (some centres not stated), the Ki in assay [1] was determined as 4.07 nM; in [3], 5.73 nM; in [5], 19.1 nM; in [8], 16.9 nM; in assay [9], 11.2 nM; in [10], 4.75 nM. Also, the Kb is 1.82 nM in assay [2] and 1.55 nM in assay [7]. The “-Log Kd” value in assay [4] was 8.27 and 8.32.
For `CC(C(=O)O[C@H]1CC2CC(C1)N(Cc1ccccc1)C2)(c1ccccc1)c1ccccc1` (some centres not stated), the Ki in assay [1] was found to be 9.53 nM; in assay [3], 27.9 nM; in [5], 12.8 nM; in [8], 9.28 nM; in assay [9] it was 12.5 nM; in assay [10], 10.9 nM. Further, the “-Log Kd” value is 8.04 in [4] and 8.03 in [6]. Further, the Kb in [11] is 5.62 nM; in assay [12] it was 5.62 nM; in [7], 6.17 nM.
Consider `CC(=O)O[C@H]1CC2CC(C1)N(C(C)c1ccccc1)C2` (some centres not stated), for which the inhibition constant Ki in [1] turned out to be 3530 nM; in assay [5], 4570 nM; in assay [13], 113 nM; in assay [9], 3380 nM; in [10], 2770 nM.
For `CN1CC2CC1C[C@@H](OC(=O)C(c1ccccc1)c1ccccc1)C2` (some centres not stated), the Ki was determined as 1.89 nM in assay [1]; 2.87 nM in assay [3]; 8.21 nM in [5]; 5.49 nM in [8]; 4.3 nM in assay [9]; 1.23 nM in assay [10]. Besides, the Kb in assay [2] was 1.86 nM; in assay [7], 1.74 nM. In assay [4], the “-Log Kd” value was determined as 8.45.
For `CC(=O)O[C@H]1CC2CC(C1)N([C@H](C)c1ccccc1)C2` (some centres not stated), the Ki in assay [1] stood at 10100 nM; in [5], 7700 nM; in assay [13], 1950 nM; in assay [9], 14900 nM; in assay [10] it was 12800 nM.
On to `CC(=O)O[C@H]1CC2CC(C1)N(C)C2` (single isomer, unassigned; (+)), for which the Ki came out at 8560 nM in assay [1]; 21000 nM in assay [5]; 2170 nM in assay [14]; 19700 nM in [9]; 13900 nM in [10].
Regarding `CN1CC2CC1C[C@@H](OC(=O)C(C)(c1ccccc1)c1ccccc1)C2` (single isomer, unassigned; (+)), the Ki in assay [1] was determined as 0.0297 nM; in assay [5] it was 0.054 nM; in assay [15], 0.0986 nM; in assay [16], 0.0383 nM.
Consider `CC(=O)O[C@@H]1CC2CC(C1)N(C)C2` (single isomer, unassigned; (+)), for which the Ki was 6470 nM in assay [1]; 10400 nM in assay [5]; 10400 nM in assay [13]; 11300 nM in assay [9]; 7110 nM in assay [10].
As for `CC(=O)O[C@H]1CC2CC(C1)N(C)C2` (single isomer, unassigned; (-)), the Ki turned out to be 3730 nM in assay [1]; 4190 nM in assay [5]; 6550 nM in [13]; 4970 nM in assay [9]; 7210 nM in assay [10].
Regarding `CN1CC2CC1C[C@@H](OC(=O)C(C)(c1ccccc1)c1ccccc1)C2` (single isomer, unassigned; (-)), the Ki in assay [1] was determined as 6.36 nM; in assay [5] it was 14.5 nM; in assay [9], 10.7 nM; in assay [10], 7.89 nM.
Take `CC(=O)O[C@@H]1CC2CC(C1)N(C)C2` (single isomer, unassigned; (-)): the Ki in assay [1] was 23000 nM; in [5] it was 38100 nM; in assay [13], 33900 nM; in assay [9], 46700 nM; in assay [10] it was 22100 nM.
As to `CN1CC2CC1C[C@@H](OC(=O)C(C)(c1ccccc1)c1ccccc1)C2` (stereo in doubt; 1), the Ki in assay [1] was 0.13 nM; in assay [3], 0.118 nM; in [5], 0.279 nM; in assay [8], 0.196 nM; in [9] it was 0.472 nM; in assay [10], 0.0881 nM. Further, the “-Log Kd” value in [4] turned out to be 10.46. Moreover, in [7], the Kb was 0.0741 nM.
Regarding `CC(=O)O[C@H]1CC2CC(C1)N(C)C2` (stereo in doubt; 8), the Ki in [1] amounted to 7530 nM; in assay [3], 9810 nM; in assay [5], 8400 nM; in assay [13], 1150 nM; in assay [9], 8990 nM; in assay [10] it was 9200 nM.
Take `CC(=O)O[C@@H]1CC2CC(C1)N(C)C2` (stereo in doubt; 9): the Ki was determined as 8550 nM in [1]; 12500 nM in assay [3]; 11900 nM in [5]; 7820 nM in [13]; 14100 nM in [9]; 8620 nM in [10].
Consider `CC(=O)O[C@@H]1C[C@@H]2C[C@H](C1)N([C@H](C)c1ccccc1)C2` (stereo in doubt; 12), for which the Ki in assay [1] came out at 19100 nM; in assay [5], 12900 nM; in assay [13], 23300 nM; in assay [9], 29900 nM; in assay [10], 23100 nM.
As for `CC(=O)O[C@@H]1C[C@@H]2C[C@H](C1)N([C@H](C)c1ccccc1)C2` (stereo in doubt; 13), the Ki in assay [1] stood at 4710 nM; in assay [5], 3750 nM; in [13], 4150 nM; in assay [9], 4280 nM; in [10], 9180 nM.
